Assay results from patent publication US11883430B2, “CD38-NAD+ regulated metabolic axis in anti-tumor immunotherapy” (MUSC FOUNDATION FOR RESEARCH DEVELOPMENT, priority 2016, dated 2024).

Columns and labels:
NAD+ = test: Intracellular NAD+ level; type: cell-based, mouse; conditions: Th1/17 differentiated with 2DG 1 mM, DON 3 μM or FK866 10 nM (FIGS. 11K, 11L)
Experimental: NAD^+, Sirt1 activity and Foxo1 activity assay: Intracellular NAD^+ level in T cells were measured spectrophotometrically following the manufacturer's protocol (Cayman chemical, Ann Arbor, MI). Using equal amounts of nuclear protein extracted by NE-PER Nuclear and Cytoplasmic Extraction Reagents (Thermo Fisher Scientific, Waltham, MA), Sirt1 activity (Universal Sirt1 Activity Assay Kit, Abcam, Cambridge, MA) and Foxo1 activity (FKHR transcription Factor Assay Kit, Active Motif, Carlsbad, CA) were determined as per manufacturer's protocol.

Th1 cells [1] = test: Intracellular cytokine (IFNγ, IL17) flow cytometry after PMA and ionomycin; type: cell-based, mouse; conditions: Th1 subsets (FIGS. 12A and 12B)
Experimental: FIGS. 12A-12D: Loss of Sirt1 expression and NAD+ levels on Th1/17 cell phenotype and function (see FIG. 5). (A) Purified CD4^+ T cells from C57BL/6 were used to differentiate to Th1/17 cells either alone or in the presence of Ex527, a pharmacological inhibitor of Sirt1. Cells were then restimulated with PMA and ionomycin for 4 hr in presence of golgi block to stain for intracellular accumulation of cytokines IFNγ and IL17. (B) Th1 cells were cultured either in presence or absence of NAD+ inhibitor FK866 (10 nM) and intracellular staining was performed for IFNγ and IL17. Data was acquired using FACS and analysis was carried out using FlowJo software. (C-D) Purified splenic CD4^+ T cells from either C57BL/6 WT or Sirt1fl/flCD4Cre (Sirt1KO) mouse were used to ex vivo program for Th1/17 cells. RNA was prepared and quantitative PCR analysis was performed for the expression of various glycolysis (C) and glutaminolysis (D) associated genes in either WT or Sirt1KO Th1/17 cells. Data in section A-D are representative of three independent experiments.
T cell differentiation: Naïve CD4^+ T cells were purified from the total splenocytes of 6-9 weeks old WT (C57BL/6) and KO (Foxo1^fl/flLck^cre, Sirt1^fl/flCD4^cre, CD38KO) mice using CD4^+ T cell isolation kit (Miltenyi Biotec) according to manufacturer's protocol. […]

Th1/17 cells [2] = test: qPCR gene expression in Th1/17 cells; type: cell-based, mouse; conditions: Th1/17 differentiated with FK866 10 nM or Ex527 (FIGS. 4D, 5D)
Experimental: Real-time quantitative-PCR: Total RNA was extracted from pellets of the indicated T cell subsets (2×10^6 cells) using Trizol reagent (Life technologies, Grand Island, NY). cDNA was generated from 1 μg total RNA using iScript cDNA Synthesis Kit (BioRad, Hercules, CA). SYBR Green incorporation quantitative real-time PCR was performed using a SYBR Green mix (Biorad, Hercules, CA) in the CFX96 Detection System (BioRad, Hercules, CA). Expression of different genes was quantified relative to Actb.

[3] = tested on: B16-F10-HLA-A2+ murine melanoma; test: Adoptive T cell transfer, s.c. B16-F10-HLA-A2+ melanoma, tumor growth; type: in vivo, mouse; conditions: Th1/17 differentiated ex vivo with FK866 or Ex527 vs untreated/vehicle (FIGS. 4E, 5F)
Th1/17 cells [4] = test: Intracellular cytokine (IFNγ, IL17) flow cytometry after PMA and ionomycin; type: cell-based, mouse; conditions: WT T cells programmed in presence of Ex527; sentence says both Th17 and Th1/17 cells (FIG. 12A)
Text: T cell differentiation: Naïve CD4^+ T cells were purified from the total splenocytes of 6-9 weeks old WT (C57BL/6) and KO (Foxo1^fl/flLck^cre, Sirt1^fl/flCD4^cre, CD38KO) mice using CD4^+ T cell isolation kit (Miltenyi Biotec) according to manufacturer's protocol. Total splenocytes from 6-9 weeks old TCR transgenic mouse TRP-1 (bears class-II restricted CD4^+ T cells) or Pmel (bears class-I restricted CD8^+ T cells) or TCR-I (bears class-I restricted CD8^+ T cells) were also used. Within experiments mice were age and sex matched. Purified naïve CD4^+ T cells or total splenocytes were differentiated to Th1 or Tc1 (10 ng/ml IL12, 50 U/ml IL2 and 10 μg/ml anti-IL4), Th17 or Tc17 (3 ng/ml TGFβ, 25 ng/ml IL6, 10 μg/ml anti-IL4 and 10 μg/ml anti-IFNγ), Th1/17 or Tc1/17 (20 ng/ml IL1β, 25 ng/ml IL6, 10 ng/ml IL12, 20 ng/ml IL23, 400 pg/ml TGFβ, 10 μg/ml anti-IL4, 5 μg/ml anti-IFNγ), iTreg (5 ng/ml TGFβ, 100 IU/ml IL2, 10 μg/ml anti-IL4 and 10 μg/ml anti-IFNγ or Th0 (50 IU/ml IL2) in presence of plate bound anti-CD3 (5 μg/ml) and anti-CD28 (5 μg/ml). For TRP-1, gp100 or Sv40 specific generation of different Th or Tc subsets, total splenocytes from either TRP-1, Pmel or TCR-I TCR transgenic mice were stimulated with 1 μg/ml respective peptides in presence of above-mentioned polarizing conditions. T cells were differentiated for three days in IMDM media supplemented with 10% FCS, 4 mM L-glutamine, 100 U/ml penicillin, 100 μg/ml streptomycin, 55 μM beta-mercaptoethanol under 7% CO2, atmospheric oxygen at 37° C. in a humidified incubator. For evaluation of intracellular cytokines by flow cytometry, T cells were re-stimulated with PMA (500 ng/ml) and Ionomycin (500 ng/ml) for 4 hr in presence of Glogi inhibitors. […]
Flow cytometry: Staining for cell surface markers was performed by incubating cells with antibody at 1:200 dilutions in FACS buffer (0.1% BSA in PBS) for 30 min at 4° C. […] Samples were acquired on LSRFortessa and analysed with FlowJo software (Tree Star, OR).

Th1 cells [5] = test: Seahorse oxygen consumption rate with etomoxir; type: cell-based, mouse; conditions: etomoxir 200 μM (FIG. 3J)
Text: (§1) FIGS. 3A-3P: Hybrid Th1/17 cells are metabolically distinct from Th1 and Th17 cells and depend upon glutaminolysis. The ex vivo programmed Th1, Th17 and Th1/17 cells were used to determine: (A) Glucose uptake using 2NBDG. Adjacent bar diagram represents the cumulative data of mean fluorescence intensity (MFI) from three independent experiments. (B) ECAR time course in response to glucose, oligomycin and 2DG (left panel). […] (C) Intracellular expression of GAPDH by FACS. Adjacent bar represents cumulative data from 3 experiments. (D) Glycolysis associated genes using qPCR. Genes including Glut1, HKI, HKII, Pfkb1, Pkm2, and LdhA are lower in Th1/Th17 while Pfkb3 and Pgam 1 are higher. (E-G) Oxygen consumption rate (OCR) under basal condition and in response to indicated mitochondrial inhibitors. Graphs representing time course (E), basal OCR (F), and OCR/ECAR ratio (G). (H) Expression of CTP1a using qPCR. […] (M) Uptake of radiolabelled glutamine that was measured in count per minute (CPM). […] (P) TRP-1 Th1/17 cells differentiated either in presence of vehicle control (DMSO) or DON (3 μM) were adoptively transferred (0.5×10^6) in 9 days s.c. established B16-F10 melanoma tumor bearing mice and tumor growth was measured. […]
(§2) Oxygen consumption rate (OCR) and Extracellular acidification rate (ECAR) was determined using Seahorse Xfe96 analyser (Agilent Technologies, Santa Clara, CA). […] OCR, a measure of OXPHOS, was analysed under basal condition or in response to 200 μM Etomoxir (Sigma-Aldrich, St. Louis, MO) followed by 1.0 μM oligomycin (Sigma-Aldrich, St. Louis, MO), 1.0 μM fluoro-carbonyl cyanide phenylhydrazone (FCCP) (Sigma-Aldrich, St. Louis, MO) and 2 μM rotenone (Sigma-Aldrich, St. Louis, MO) plus 100 nM antimycin A (Sigma-Aldrich, St. Louis, MO). ECAR, a measure of glycolysis was measured under basal conditions and in response to glucose (5.5 mM), Oligomycin (1.0 μM), 2-deoxyglucose (2-DG) (100 mM) (Sigma-Aldrich, St. Louis, MO).

Th17 cells = test: Seahorse oxygen consumption rate with etomoxir; type: cell-based, mouse; conditions: etomoxir 200 μM (FIG. 3I)
Text: as §1, §2

Th1/17 cells [6] = test: Seahorse oxygen consumption rate with etomoxir; type: cell-based, mouse; conditions: etomoxir 200 μM (FIG. 3K)
Text: as §1, §2

O=CC[C@@H](O)[C@H](O)[C@H](O)CO [2DG, 2-Deoxy-D-glucose]
NAD+ levels in Th1/17 cells (NAD+): increased the NAD^+ level in Th1/17 cells

NC(=O)C1CCCc2c1[nH]c1ccc(Cl)cc21 (centres unmarked) [Ex527]
IFNγ secreting fraction (Th1 cells [1]): No significant difference
expression of stemness-associated genes (Th1/17 cells [2]): markedly reduced
tumor control by inhibitor-treated Th1/17 cells upon adoptive transfer [3]: reduced ability to control tumor growth as compared to the vehicle treated cells
frequency of IL17+ population (Th1/17 cells [4]): decreased frequency of IL17^+ population

CCOC(=O)[C@@]1(CCCCCCOc2ccc(Cl)cc2)CO1 [etomoxir]
OXPHOS (Th1 cells [5]): mostly unaffected
OCR and SRC values (Th17 cells): significantly depleted OCR and SRC values
OXPHOS (Th1/17 cells [6]): mostly unaffected
